SMILES strings stand for the structures.

The assay has as its system copepodid stage of sea lice. Description: Bath test against copepodid stage of sea lice. Particulars: in a bath at similar dosage. In kind it is in vivo. The source says:
While compounds in this class act with similar modes of action (in this case on the gamma-aminobutyric acid (GABA) and glutamate gated chloride channels), differences do exist among them that influence pharmacological activity.

As for `C#CCNC(=O)CNC(=O)c1sc(C2=NOC(c3cc(Cl)cc(Cl)c3)(C(F)(F)F)C2)cc1C` (stereo not shown), the “activity against the copepodid stage of sea lice” value was “inactive”.

The values above are taken from US12280040B2, “Compositions and methods of a dihydroisoxazole compound that reduces ectoparasite infestations on fish” (EVAH Atlantic Inc., priority 2023, dated 2025).
